30 compounds from ChEMBL document CHEMBL3112582, “Identification of novel 7-amino-5-methyl-1,6-naphthyridin-2(1H)-one derivatives as potent PI3K/mTOR dual inhibitors” (Bioorg Med Chem Lett, 2014) can be followed below.

Some results are limits rather than exact numbers.

In data set [1] the target is Serine/threonine-protein kinase mTOR (Homo sapiens, UniProt P42345). Nature of the data set: Inhibition of mTOR (unknown origin) after 40 mins by TR-FRET assay.
Data set [2] concerns the target Phosphatidylinositol 4,5-bisphosphate 3-kinase catalytic subunit alpha isoform (Homo sapiens, UniProt P42336). The data set is described as follows: Inhibition of PI3Kalpha (unknown origin) using PIP2/PS as substrate compound preincubated for 15 mins by luciferase-based luminescence assay.
In a further data set the test system is SK-OV-3. Nature of the data set: Antiproliferative activity against human SKOV3 cells after 72 hrs by CellTiter-Glo assay. As to conditions: SK-OV-3, 72 h. Type of data set: functional, cell-based.
A short description of data set [3]: AUC (infinity) in CD-1 mouse at 6.81 mg/kg, po. The data set is classed as ADME, organism-based. Also on record: time infinity, dose 6.81 mg/kg, route oral. Conditions: plasma.
Data set [4] is described as follows: Half life in CD-1 mouse at 6.81 mg/kg, po. Type of data set: ADME, organism-based. On the set-up: dose 6.81 mg/kg, route oral. As to conditions: in vivo.
Data set [5] can be described thus: Oral bioavailability in CD-1 mouse at 6.81 mg/kg. Type of data set: ADME, organism-based. Conditions: in vivo.
Data set [6] is described as follows: AUC (infinity) in CD-1 mouse at 1.3 mg/kg, iv. The data set is classed as ADME, organism-based. On the set-up: time infinity, dose 1.3 mg/kg, route intravenous. Conditions: plasma.
Data set [7] is described as follows: Clearance in CD-1 mouse at 1.3 mg/kg, iv. Conditions: in vivo. Type of data set: ADME, organism-based. Also on record: dose 1.3 mg/kg, route intravenous.
The nature of data set [8]: Half life in CD-1 mouse at 1.3 mg/kg, iv. Also on record: dose 1.3 mg/kg, route intravenous. The data set is classed as ADME, organism-based. Conditions: in vivo.

Chain of Phosphatidylinositol 4,5-bisphosphate 3-kinase catalytic subunit alpha isoform (P42336 whole entry, canonical isoform): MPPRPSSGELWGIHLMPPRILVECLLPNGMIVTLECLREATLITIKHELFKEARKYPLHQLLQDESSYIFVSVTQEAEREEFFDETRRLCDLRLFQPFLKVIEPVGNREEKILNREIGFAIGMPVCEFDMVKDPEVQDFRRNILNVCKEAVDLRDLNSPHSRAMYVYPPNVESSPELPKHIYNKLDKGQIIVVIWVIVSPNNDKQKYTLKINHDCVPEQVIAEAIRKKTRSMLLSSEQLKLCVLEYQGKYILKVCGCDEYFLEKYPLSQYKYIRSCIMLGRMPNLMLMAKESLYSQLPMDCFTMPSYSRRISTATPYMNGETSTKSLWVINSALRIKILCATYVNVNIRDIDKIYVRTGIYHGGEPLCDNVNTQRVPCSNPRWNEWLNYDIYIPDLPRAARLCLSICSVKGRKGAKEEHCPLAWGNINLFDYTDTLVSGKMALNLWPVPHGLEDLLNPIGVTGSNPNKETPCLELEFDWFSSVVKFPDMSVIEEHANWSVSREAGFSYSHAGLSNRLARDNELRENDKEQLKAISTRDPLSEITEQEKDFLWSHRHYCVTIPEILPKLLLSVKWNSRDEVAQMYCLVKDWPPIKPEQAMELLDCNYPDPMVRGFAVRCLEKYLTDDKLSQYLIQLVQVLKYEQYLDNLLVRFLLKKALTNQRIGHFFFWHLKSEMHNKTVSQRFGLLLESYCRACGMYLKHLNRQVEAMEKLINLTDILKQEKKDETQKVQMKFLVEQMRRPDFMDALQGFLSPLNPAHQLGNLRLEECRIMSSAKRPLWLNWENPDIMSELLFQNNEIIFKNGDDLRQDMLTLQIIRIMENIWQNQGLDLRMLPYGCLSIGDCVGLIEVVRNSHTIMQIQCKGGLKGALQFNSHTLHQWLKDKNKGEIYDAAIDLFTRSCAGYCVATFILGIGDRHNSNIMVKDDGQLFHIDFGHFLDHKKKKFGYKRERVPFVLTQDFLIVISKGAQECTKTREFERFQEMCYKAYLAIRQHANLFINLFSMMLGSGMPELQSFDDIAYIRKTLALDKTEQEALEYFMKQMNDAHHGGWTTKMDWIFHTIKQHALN

As for `COc1ccc(-c2cc3c(C)nc(N)nc3n(C3CCCC3)c2=O)cn1`, in data set [1], the IC50 turned out to be 0.0301 µM.
Take `COc1ncc(-c2cc3c(C)nc(N)cc3n(C3CCCC3)c2=O)cc1NS(=O)(=O)c1ccc(C(F)(F)F)cc1`: the figures for the concentration for half-maximal inhibition (IC50) in data set [1] and in data set [2] were 0.0782 µM and 0.175 µM, respectively.
With `COc1ncc(-c2cc3c(C)nc(N)cc3n(C3CCCC3)c2=O)cc1NS(=O)(=O)c1ccc(F)cc1`, the IC50 is 0.035 µM in data set [1] and 0.0726 µM in data set [2].
For `COc1ncc(-c2cc3c(C)nc(N)cc3n(C3CCCC3)c2=O)cc1NS(=O)(=O)c1cccc(F)c1`, the values for the IC50 in [1] and in [2] were 0.0139 µM and 0.0605 µM, respectively.
Turning to `COc1ncc(-c2cc3c(C)nc(N)cc3n(C3CCCC3)c2=O)cc1NS(=O)(=O)c1ccccc1F`, in [2], the IC50 came to 0.0373 µM.
As for `COc1ncc(-c2cc3c(C)nc(N)cc3n(C3CCCC3)c2=O)cc1NS(=O)(=O)c1ccc(Cl)s1`, the IC50 in data set [1] worked out at 0.00849 µM; in [2] it was 0.0312 µM.
For `COc1ncc(-c2cc3c(C)nc(N)cc3n([C@H]3CC[C@H](O)CC3)c2=O)cc1NS(=O)(=O)c1ccc(F)cc1F`, the IC50 in data set [1] was determined as 0.0287 µM; in data set [2], 0.0099 µM.
`COc1ncc(-c2cc3c(C)nc(N)cc3n(C3CCOCC3)c2=O)cc1NS(=O)(=O)c1ccc(F)cc1F`: the IC50 in data set [1] came to 0.0134 µM; in [2] it was 0.0086 µM.
In data set [2], `COc1ncc(-c2cc3c(C)nc(N)cc3n(C3CC3)c2=O)cc1NS(=O)(=O)c1ccc(F)cc1F` displayed an IC50 of 0.0396 µM.
`COc1ncc(-c2cc3c(C)nc(N)cc3n(C(C)C)c2=O)cc1NS(=O)(=O)c1ccc(F)cc1F`: the half-maximal inhibitory concentration (IC50) in data set [1] was determined as 0.126 µM; in data set [2], 0.0428 µM.
Turning to `COc1ccc(-c2cn([C@H]3CC[C@H](OCCO)CC3)c3nc(N)nc(C)c23)cn1`, the IC50 in data set [1] and in [2] was above 10 µM each time.
For the compound `COc1ccc(-c2cc3c(C)nc(N)nc3n2[C@H]2CC[C@H](OCCO)CC2)cn1`, the IC50 is above 10 µM in [1] and 5.55 µM in data set [2].
`COc1ncc(-c2cnc3nc(N)nc(C)c3c2)cc1NS(=O)(=O)c1ccc(F)cc1F` had an IC50 in [1] of 0.0353 µM.
For `COc1ncc(-c2cnc3nc(N)nc(-c4ccncc4)c3c2)cc1NS(=O)(=O)c1ccc(F)cc1F`, the IC50 was determined as 0.0184 µM in [1] and 0.0356 µM in [2].
In the case of `COc1ncc(-c2ccc3nc(N)nc(C)c3c2)cc1NS(=O)(=O)c1ccc(F)cc1F`, the results for the IC50 in data set [1] and in data set [2] were 0.00232 µM and 0.00343 µM, respectively.
As for `COc1ccc(-c2cc3c(C)nc(N)cc3n([C@H]3CC[C@H](OCCO)CC3)c2=O)cn1`, the IC50 came out at 0.0112 µM in data set [1] and 0.0354 µM in [2].
On the same counts, the results for `COc1ccc(-c2cc3c(C)nc(N)cc3n(C3CCCC3)c2=O)cn1` are 0.039 µM and 0.0136 µM.
For the compound `COc1ncc(-c2cc3c(C)nc(N)cc3n(C3CCCC3)c2=O)cn1`, the 50% inhibitory concentration (IC50) in data set [1] turned out to be 0.0365 µM; in [2] it was 0.00645 µM.
`COc1ncc(-c2cc3c(C)nc(N)cc3n(C3CCCC3)c2=O)cc1F`: the IC50 in data set [1] was 0.16 µM; in [2], 0.00595 µM.
On to `Cc1nc(N)cc2c1cc(-c1cnc3[nH]ccc3c1)c(=O)n2C1CCCC1`, for which the half-maximal inhibitory concentration (IC50) in data set [1] amounted to 0.0123 µM; in data set [2], 0.00245 µM.
On to `Cc1nc(N)cc2c1cc(-c1cnc3c(ccn3C)c1)c(=O)n2C1CCCC1`, for which the figures for the IC50 in data set [1] and in [2] were 0.0821 µM and 0.0152 µM, respectively.
As for `Cc1nc(N)cc2c1cc(-c1cnc3[nH]cnc3c1)c(=O)n2C1CCCC1`, the IC50 was 0.0139 µM in data set [1] and 0.0029 µM in data set [2].
The corresponding values for `Cc1nc(N)cc2c1cc(-c1cnc3[nH]ncc3c1)c(=O)n2C1CCCC1` are 0.172 µM and 0.006 µM.
Turning to `COc1ncc(-c2cc3c(C)nc(N)cc3n(C3CCCC3)c2=O)cc1NS(=O)(=O)c1ccc(F)cc1F`, the IC50 came to 0.0339 µM in [1] and 0.012 µM in data set [2].
Regarding `COc1ncc(-c2cc3c(C)nc(N)cc3n([C@H]3CC[C@H](OCCO)CC3)c2=O)cc1NS(=O)(=O)c1ccc(F)cc1F`, the figures for the IC50 (in the data set with SK-OV-3; in [1]; in data set [2]) were 2.1 µM, 0.00855 µM and 0.00242 µM, respectively. In addition, the AUC(0-inf) in data set [3] came to 3.44 µg·h/mL; in [6] it was 8.09 µg·h/mL. Further, the half-life is 7.67 h in [4] and 1.33 h in data set [8]. For the same compound, the bioavailability in data set [5] was 8.5%. In [7], this compound yielded a clearance of 0.172 L/h/kg.
For `COc1ncc(-c2cc3c(C)nc(N)cc3n(C3CCCC3)c2=O)cc1NS(C)(=O)=O`, the figures for the IC50 in data set [1] and in data set [2] were 0.0626 µM and 0.0231 µM, respectively.
Turning to `COc1ncc(-c2cc3c(C)nc(N)cc3n(C3CCCC3)c2=O)cc1NS(=O)(=O)C1CC1`, the IC50 in [1] is 0.141 µM; in data set [2] it was 0.0691 µM.
The corresponding values for `COc1ncc(-c2cc3c(C)nc(N)cc3n(C3CCCC3)c2=O)cc1NS(=O)(=O)c1ccccc1` are 0.0192 µM and 0.117 µM.
On the same counts, the results for `COc1ccc(S(=O)(=O)Nc2cc(-c3cc4c(C)nc(N)cc4n(C4CCCC4)c3=O)cnc2OC)cc1` are 0.0656 µM and 0.174 µM.
On the same counts, the results for `COc1ncc(-c2cc3c(C)nc(N)cc3n(C3CCCC3)c2=O)cc1NS(=O)(=O)c1ccc(C#N)cc1` are 0.0247 µM and 0.0143 µM.
